Data from patent publication US11813264B2, “PAR1 modulation to alter myelination” (Mayo Foundation for Medical Education and Research, priority 2014, dated 2023).

Tests used:
Erk1/2 phosphorylation = test: Klk6-PAR signaling assay, Erk1/2 phosphorylation by Western blot in Oli-neu; type: cell-based, mouse; conditions: treatment alone; Klk6 10 minutes
Procedure: Klk6-PAR signaling assays: To examine the ability of Klk6 to mediate PAR-dependent signaling in oligodendrocytes, Oli-neu oligodendroglia (3.5×10^5 cells/well in six-well plates) were treated with Klk6 (150 nM) for 10 min, followed by protein harvest. Cell lysates were analyzed for phosphorylated or nonphosphorylated Erk1/2 by Western blot. In experiments to determine the role of PARs in Klk6 signaling, Oli-neu were preincubated with the PAR1 antagonist, SCH79797 dihydrochloride (50 nM, Tocris Biosciences, Minneapolis, MN) for 30 minutes prior to Klk6 application.
Western blot: Oli-neu lysates were obtained using a buffer containing 1% NP40, 0.5% deoxycholate, 10% glycerol, and 20 mM Tris base and separated on SDS-polyacrylamide gels prior to transfer. Membranes were blocked with 5% milk in TBS-T and incubated overnight with primary antibodies including rabbit anti-phospho-Erk1/2 (1:1,000, Cell Signaling Technology, Danvers, MA), followed with a species-appropriate horseradish peroxidase-conjugated secondary antibody (1:20,000 GE Healthcare Unlimited, UK). Signal was detected using Chemiluminescence Supersignal Pico (Pierce, Rockford, IL). Western blots were repeated three times from independent cultures, scanned, and quantified by densitometry (BioRad Quantity One 1-D Analysis Software, BioRad, Hercules, CA). Erk1/2 signal was normalized to its nonphosphorylated form. Equal loading was verified by reprobing blots for […] (Novus Biologicals, Littleton, CO).

spinal cord white matter = test: Microinjection of Klk6 or PAR1-AP into spinal cord dorsal column white matter; type: in vivo, mouse
Procedure: In vivo effects of excess Klk6 or PAR1-AP in spinal cord white matter: All mice were administered Buprenorphine preoperatively (Buprenex, 0.03 mg/kg, intraperitoneal (i.p.), Reckitt Benckise, Slough, UK) and every 12 hours for the first 48 hours following surgery. Surgical anesthesia was induced in age-matched male C57BL6/J or PAR12/2 mice using Ketamine (Ketaset, 80 mg/kg, Fort Dodge Animal Health, Fort Dodge, IA) and Xylazine i.p. (Anased, 10 mg/kg, Lloyd Laboratories, Shenendoah, IA). A thoracic (T11-T12) laminectomy was performed and a 30-40 μm glass capillary needle inserted into a 10 μL gas-tight Hamilton Syringe (Hamilton Company, Reno, NV) used to deliver 2 μL of Klk6 (0.01 μg/μL (300 nM)), PAR1-AP (0.01 μg/μL (100 μM)), or vehicle (physiologic saline) alone (n=3 for each treatment group) using a stereotaxic injection system (Stoelting, Wood Dale, IL). Under micromanipulator control (MyNeurolab, Richmond, IL), the needle was inserted 350 μm into the dorsal column, infusion carried out over 5 minutes and the needle left in place for 3 minutes to avoid backflow. All mice received 0.5 mL of sterile saline and Baytril (2.5 mg/kg, Bayer Healthcare, Shawnee Mission, KS) i.p. postoperatively.
Seventy-two hours after microinjection of PAR1 agonists, mice were deeply anesthetized with Nembutal (50 mg/kg, i.p., Lundbeck, Deerfield, IL) and perfused transcardially with 4% PFA. Two millimeter transverse spinal cord segments encompassing the microinjection epicenter as well as 2 mm rostral and caudal were embedded in paraffin. Six micrometer sections were cut and slide mounted serially. Every sixth slide was stained with hematoxylin and eosin (H&E). Adjacent sections were immunostained for oligodendroglia using an antibody specific for CC-1/APC (ab16794, AbCam, Cambridge, MA), myelin using an antibody recognizing MBP (MAB386, Millipore, Bedford, MA), and standard avidin-biotin immunoperoxidase techniques (Scarisbrick et al., J Comp Neurol 431:347-361, 2001; and Scarisbrick et al. 2012b, supra). Stained sections were cover slipped with Permount (Fisher Scientific, Pittsburgh, PA) containing 2 mg/mL bisbenzamide to visualize nuclei (Sigma Aldrich).
Measurements of white matter lesion area were based on signs of pathology (vacuolation, tissue destruction, hemorrhage) in 20× digital images of H&E stained sections. The largest lesion area in each animal was used to determine mean maximal lesion area and expressed in μm^2. The integrity of MBP immunoreactivity was assessed in sections for 2,000 μm rostrocaudal to the microinjection site. The number of dorsal column CC-1^+/DAPI^+ cells was quantified in sections across […] of spinal cord extending rostrocaudal to the epicenter. The mean area of dorsal column white matter in the intact spinal cord was approximately […]. To put the number of CC-1^+ oligodendrocytes into context, the mean number CC-1V cells per mm^2 was evaluated as the mean number per […]. Sections stained for CC-1 were also stained for GFAP (Sigma Aldrich), allowing for the exclusion of CC-1^+ astrocytes; however, no examples of double labeled cells were observed.

Klk6: Recombinant murine kallikrein-related peptidase 6 expressed using a baculovirus system
Erk1/2 phosphorylation (Erk1/2 phosphorylation): nearly four-fold increase
maximal lesion area relative to saline alone (spinal cord white matter; PAR1+/+ mice): enhanced
reduction of CC-1+ cells in dorsal column white matter (spinal cord white matter; PAR1+/+ mice): ~15%
rostrocaudal white matter pathology versus saline alone (spinal cord white matter; PAR1+/+ mice): two-fold greater
loss of MBP-immunoreactivity relative to saline alone (spinal cord white matter; PAR1+/+ mice, 72 hours): ~45%
white matter surrounding injection site with vacuolating myelinopathy, tissue destruction and hemorrhage (spinal cord white matter; PAR1+/+ mice, 0.02 μg total, 72 hours): over 1,200 μm
rostrocaudal white matter pathology (spinal cord white matter; PAR1+/+ mice, 0.02 μg, 72 hours): 1,242.0±95.3 μm
white matter pathology (spinal cord white matter; PAR1-/- mice): largely absent
